Measurements taken from PubChem BioAssay (NCI).
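Results reflect a 48-hour exposure of cells in 96-well plates to compound at five concentrations. GI50 marks 50% less growth. At the TGI there is no net growth.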

Assays:
Test in all cases: growth of human tumour cells (NCI), 48 h
KM12 colon = test system: KM12 colon
CCRF-CEM leukemia = test system: CCRF-CEM leukemia
RPMI-8226 leukemia = test system: RPMI-8226 leukemia
SK-MEL-5 melanoma = test system: SK-MEL-5 melanoma
SR leukemia = test system: SR leukemia
SK-MEL-2 melanoma = test system: SK-MEL-2 melanoma
ACHN renal = test system: ACHN renal
NCI-H226 lung = test system: NCI-H226 lung
NCI/ADR-RES ovarian = test system: NCI/ADR-RES ovarian
M14 melanoma = test system: M14 melanoma

Row | SMILES | GI50 (KM12 colon) [µM] | TGI (KM12 colon) [µM] | GI50 (CCRF-CEM leukemia) [µM] | TGI (CCRF-CEM leukemia) [µM] | GI50 (RPMI-8226 leukemia) [µM] | TGI (RPMI-8226 leukemia) [µM] | GI50 (SK-MEL-5 melanoma) [µM] | TGI (SK-MEL-5 melanoma) [µM] | GI50 (SR leukemia) [µM] | TGI (SR leukemia) [µM] | GI50 (SK-MEL-2 melanoma) [µM] | TGI (SK-MEL-2 melanoma) [µM] | GI50 (ACHN renal) [µM] | TGI (ACHN renal) [µM] | GI50 (NCI-H226 lung) [µM] | TGI (NCI-H226 lung) [µM] | GI50 (NCI/ADR-RES ovarian) [µM] | TGI (NCI/ADR-RES ovarian) [µM] | GI50 (M14 melanoma) [µM] | TGI (M14 melanoma) [µM]
1 | O=[N+]([O-])c1ccc2[nH]cc(-c3c4ccccc4cc4[nH]c5ccc([N+](=O)[O-])cc5c34)c2c1 | 1.78 | 3.37 | 2.38 | 6.71 | 2.27 | 6.32 | 1.62 | 2.98 | 2.86 | > 100 | 2.18 | 5.34 | 2.42 | 6.97 | 2.2 | 5.8 | 2.91 | 11.5 | 1.67 | 3.22
2 | O=C1c2cccc3cccc(c23)C(=O)N1CCCCOc1ccc(-c2nc3ccc(N4CCOCC4)cc3[nH]2)cc1 | 2.88 | – | 2.91 | > 28.2 | 1.27 | 4.39 | 1.6 | 3.06 | 2.35 | > 100 | 15.7 | 53.6 | 15.2 | 29.2 | 25.6 | 47.6 | 10.3 | > 83.9 | 2.88 | 7.55
3 | COc1cc2c(/C=C3\C(=O)Nc4ccc(Br)cc43)c(Cl)n(C)c2cc1C | 0.387 | 1.88 | 2.94 | 23.2 | 1.41 | 16.6 | 1.41 | 2.99 | 1.42 | – | 1.74 | 5.7 | 2.26 | 11.2 | 1.88 | 6.18 | 0.799 | 3.41 | 1.8 | 6.01
4 | Fc1ccc(Nc2nc(Nc3ccc(-c4nc5ccccc5[nH]4)cc3)nc(N3CCCC3)n2)cc1 | 2.98 | 10 | 2.98 | 10.4 | 2.28 | 6.3 | 11.8 | 24.4 | 0.927 | 6.5 | 13 | 28 | 3.08 | 10.4 | 14.2 | 34.9 | 2.89 | 12.1 | 1.89 | 3.95
5 | CCOC1NC(=O)Oc2ccccc21 (centres undefined) | – | > 100 | – | > 100 | – | – | – | > 100 | – | > 100 | – | > 100 | – | > 100 | – | > 100 | – | > 100 | – | > 100
6 | O=C(Nc1ccccc1Cl)c1ccc(NC2=C(Cl)C(=O)N(Cc3ccccc3)C2=O)cc1 | 32.7 | > 100 | > 100 | > 100 | > 100 | > 100 | 32.7 | > 100 | 15.7 | 41.5 | – | – | 37.6 | > 100 | 32.5 | 92.3 | 86.2 | > 100 | 79.4 | > 100
7 | Cc1ccc(S(=O)(=O)N2CCCCC2CCO)cc1 (centres undefined) | – | > 100 | – | > 100 | – | > 100 | – | > 100 | – | > 100 | – | > 100 | – | > 100 | – | > 100 | – | – | – | > 100
